Measured values published in patent publication US20100137275A1 (IPSEN PHARMA S.A.S., priority 2007, published 2010).

What was measured:
[1] = target: T1, purified recombinant Cdc25-C enzyme (MBP-Cdc25C protein) (Homo sapiens, UniProt P30307); assay: Phosphatase activity of the purified recombinant Cdc25C enzyme (OMFP dephosphorylation, fluorescence); format: biochemical; conditions: OMFP 500 μM, 4 hours at 30° C.
T1 construct: made in house
T1 sequence (P30307 1-473): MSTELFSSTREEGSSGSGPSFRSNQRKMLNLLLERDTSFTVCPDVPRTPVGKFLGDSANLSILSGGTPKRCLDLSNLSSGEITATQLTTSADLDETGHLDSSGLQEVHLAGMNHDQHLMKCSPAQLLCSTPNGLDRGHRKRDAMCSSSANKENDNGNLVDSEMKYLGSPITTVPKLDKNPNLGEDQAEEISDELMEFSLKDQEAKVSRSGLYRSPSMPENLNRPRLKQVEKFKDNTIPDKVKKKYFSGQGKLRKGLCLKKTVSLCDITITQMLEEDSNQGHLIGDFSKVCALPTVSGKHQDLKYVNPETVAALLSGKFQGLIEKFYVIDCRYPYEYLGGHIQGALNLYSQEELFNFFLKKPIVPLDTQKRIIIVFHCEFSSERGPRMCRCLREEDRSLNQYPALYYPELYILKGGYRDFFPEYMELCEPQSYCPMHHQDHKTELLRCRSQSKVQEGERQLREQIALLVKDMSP
Outline: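 MBP-Cdc25C fusion protein in 50 mM Tris-HCl pH 8.2, 50 mM NaCl, 1 mM DTT, 20% glycerol; reaction started with 500 μM OMFP (final). Compounds tested at decreasing concentrations from 40 μM; 4 h at 30 °C, OMF fluorescence read at 475 nm. IC50 from three independent experiments by linear regression over the linear part of the sigmoid.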

[2] = system: DU145 (human prostate cancer cells); assay: Anti-proliferative activity on DU-145 cell line (WST1 colorimetric test); format: cell-based; conditions: DU-145, 96 h, 96 hours treatment, read-out: IC50 on the proliferation of the DU-145 cell line
Procedure: (§1) By way of an example, the effect of treating two human cell lines Mia-Paca2 and DU145 with the compounds of the examples described hereinbefore will be studied. The cell lines DU145 (human prostate cancer cells) and Mia-PaCa2 (human pancreas cancer cells) were obtained from the American Tissue Culture Collection (Rockville, Md., USA). A 96-well plate was inoculated on day 0 with cells placed in 80 μl of Dulbecco's modified Eagle's medium (Gibco-Brl, Cergy-Pontoise, France) with 10% heat-inactivated foetal calf serum (Gibco-Brl, Cergy-Pontoise, France), 50000 units/1 of penicillin and 50 mg/l of streptomycin (Gibco-Brl, Cergy-Pontoise, France), and 2 mM of glutamine (Gibco-Brl, Cergy-Pontoise, France). The cells were treated on day 1 with increasing concentrations of each test compound up to 10 μM for 96 hours. At the end of this period, cell proliferation is quantified by means of a colorimetric test based on cleavage of the tetrazolium salt WST1 by the mitochondrial dehydrogenases in the viable cells, resulting in formation of formazan (Boehringer Mannheim, Meylan, France). These tests are performed in duplicate with 8 determinations per concentration tested. For each compound to be tested, the values within the linear part of the sigmoid curve were subjected to linear regression analysis and used to estimate the IC50 inhibitory concentration. The products are solubilised in dimethylsulfoxide (DMSO) at a concentration of 10^−2 M and used in culture with a final DMSO concentration of 0.1%.

[3] = system: Mia-PaCa2 (human pancreas cancer cells); assay: Anti-proliferative activity on Mia-Paca2 cell line (WST1 colorimetric test); format: cell-based; conditions: MIA PaCa-2, 96 h, 96 hours treatment, read-out: IC50 on proliferation of the Mia-Paca2 cell line
Procedure: as §1

CN(CCNC(=O)Nc1cccc2nsnc12)CCNc1cc(N2CCCC2)nc(N2CCCC2)n1 [Example 15, N-2,1,3-benzothiadiazol-4-yl-N′-{2-[{2-[(2,6-dipyrrolidin-1-ylpyrimidin-4-yl)amino]ethyl}(methyl)amino]ethyl}urea] showed an IC50 [1] of at most 1 µM, a melting point of 126 to 128 °C and an IC50 [2] of at most 5 µM. It also gave an IC50 [3] of at most 5 µM.
For CN(CCNC(=O)Nc1ccc(Cl)cc1)CCNc1cc(N2CCCC2)nc(N2CCCC2)n1 [Example 16, N-(4-chlorophenyl)-N′-{2-[{2-[(2,6-dipyrrolidin-1-ylpyrimidin-4-yl)amino]ethyl}(methyl)amino]ethyl}urea], the IC50 [1] was at most 1 µM, the melting point was 71 to 73 °C and the IC50 [2] was at most 5 µM. It also gave an IC50 [3] of at most 5 µM.
CN(CCNC(=O)Nc1ccc(Cl)c(Cl)c1)CCNc1cc(N2CCCC2)nc(N2CCCC2)n1 [Example 17, N-(3,4-dichlorophenyl)-N′-{2-[{2-[(2,6-dipyrrolidin-1-ylpyrimidin-4-yl)amino]ethyl}(methyl)amino]ethyl}urea] gave an IC50 [1] of at most 1 µM, a melting point of 138 to 139 °C and an IC50 [2] of at most 5 µM. For the same molecule, the IC50 [3] was at most 5 µM.
O=C(NCCCCCNc1cc(N2CCCC2)nc(N2CCCC2)n1)Nc1ccc(Cl)cc1 [Example 19, N-(4-chlorophenyl)-N′-{5-[(2,6-dipyrrolidin-1-ylpyrimidin-4-yl)amino]pentyl}urea] showed an IC50 [1] of at most 1 µM, a melting point of 192 to 193 °C and an IC50 [2] of at most 5 µM. For the same molecule, the IC50 [3] was at most 5 µM.
With CN(CCNC(=S)Nc1ccc(S(=O)(=O)N2CCCCC2)cc1)CCNc1cc(N2CCCC2)nc(N2CCCC2)n1 [Example 27, N-{2-[{2-[(2,6-dipyrrolidin-1-ylpyrimidin-4-yl)amino]ethyl}(methyl)amino]ethyl}-N′-[4-(piperidin-1-ylsulfonyl)phenyl]thiourea] the IC50 [1] was at most 5 µM, the melting point was 120 to 122 °C and the IC50 [2] was at most 5 µM. It also gave an IC50 [3] of at most 5 µM.
Molecule COc1cc(NC(=S)NCCN(C)CCNc2cc(N3CCCC3)nc(N3CCCC3)n2)cc(OC)c1OC [Example 38, N-{2-[{2-[(2,6-dipyrrolidin-1-ylpyrimidin-4-yl)amino]ethyl}(methyl)amino]ethyl}-N′-(3,4,5-trimethoxyphenyl)thiourea] has an IC50 [1] of at most 1 µM, a melting point of 109 to 111 °C and an IC50 [2] of at most 5 µM. It also gave an IC50 [3] of at most 5 µM.
CN(CCNC(=S)Nc1ccccc1F)CCNc1cc(N2CCCC2)nc(N2CCCC2)n1 [Example 42, N-{2-[{2-[(2,6-dipyrrolidin-1-ylpyrimidin-4-yl)amino]ethyl}(methyl)amino]ethyl}-N′-(2-fluorophenyl)thiourea] gave an IC50 [1] of at most 5 µM, a melting point of 105 to 107 °C and an IC50 [2] of at most 5 µM. The IC50 [3] was at most 5 µM.
Work on CN(CCNC(=S)NCc1ccc(F)cc1)CCNc1cc(N2CCCC2)nc(N2CCCC2)n1 [Example 46, N-{2-[{2-[(2,6-dipyrrolidin-1-ylpyrimidin-4-yl)amino]ethyl}(methyl)amino]ethyl}-N′-(4-fluorobenzyl)thiourea] yielded an IC50 [1] of at most 1 µM, a melting point of 64 to 66 °C and an IC50 [2] of at most 5 µM. It also gave an IC50 [3] of at most 5 µM.
For CN(CCNC(=S)Nc1cccnc1Oc1ccc(F)cc1F)CCNc1cc(N2CCCC2)nc(N2CCCC2)n1 [Example 47, N-[2-(2,4-difluorophenoxy)pyridin-3-yl]-N′-{2-[{2-[(2,6-dipyrrolidin-1-ylpyrimidin-4-yl)amino]ethyl}(methyl)amino]ethyl}thiourea], the IC50 [1] was at most 1 µM, the melting point was 108 to 110 °C and the IC50 [2] was at most 5 µM. For the same molecule, the IC50 [3] was at most 5 µM.
CN(CCNC(=S)Nc1ccc(-n2cccn2)cc1)CCNc1cc(N2CCCC2)nc(N2CCCC2)n1 [Example 48, N-{2-[{2-[(2,6-dipyrrolidin-1-ylpyrimidin-4-yl)amino]ethyl}(methyl)amino]ethyl}-N′-[4-(1H-pyrazol-1-yl)phenyl]thiourea] showed an IC50 [1] of at most 5 µM, a melting point of 116 to 118 °C and an IC50 [2] of at most 5 µM. For the same molecule, the IC50 [3] was at most 5 µM.
CN(CCNC(=S)Nc1ccc(Cl)nc1)CCNc1cc(N2CCCC2)nc(N2CCCC2)n1 [Example 53, N-(6-chloropyridin-3-yl)-N′-{2-[{2-[(2,6-dipyrrolidin-1-ylpyrimidin-4-yl)amino]ethyl}(methyl)amino]ethyl}thiourea] showed an IC50 [1] of at most 1 µM, a melting point of 96 to 98 °C and an IC50 [2] of at most 5 µM. The IC50 [3] was at most 5 µM.
Work on CN(CCNC(=S)Nc1ccc(S(=O)(=O)c2ccc(Br)cc2)cc1)CCNc1cc(N2CCCC2)nc(N2CCCC2)n1 [Example 60, N-{4-[(4-bromophenyl)sulfonyl]phenyl}-N′-{2-[{2-[(2,6-dipyrrolidin-1-ylpyrimidin-4-yl)amino]ethyl}(methyl)amino]ethyl}thiourea] yielded an IC50 [1] of at most 1 µM, a melting point of 118 to 120 °C and an IC50 [2] of at most 5 µM. For the same molecule, the IC50 [3] was at most 5 µM.
With CN(CCNC(=S)Nc1ccc(S(=O)(=O)Nc2ccccc2)cc1)CCNc1cc(N2CCCC2)nc(N2CCCC2)n1 [Example 62, 4-{[({2-[{2-[(2,6-dipyrrolidin-1-ylpyrimidin-4-yl)amino]ethyl}(methyl)amino]ethyl}amino)carbonothioyl]amino}-N-phenylbenzenesulfonamide] the IC50 [1] was at most 1 µM, the melting point was 146 to 148 °C and the IC50 [2] was at most 5 µM. The IC50 [3] was at most 5 µM.
Molecule CN(CCNC(=S)Nc1ccc(Cl)cc1)CCNc1cc(N(C)C)nc(N(C)C)n1 [Example 73, N-{2-[(2-{[2,6-bis(dimethylamino)pyrimidin-4-yl]amino}ethyl)(methyl)amino]ethyl}-N′-(4-chlorophenyl)thiourea] has an IC50 [1] of at most 5 µM, a melting point of 127 to 129 °C and an IC50 [2] of at most 5 µM. The IC50 [3] was at most 5 µM.
CN(CCNC(=S)Nc1ccc(Cl)cc1)CCNc1cc(N2CCC2)nc(N2CCC2)n1 [Example 75, N-(4-chlorophenyl)-N′-{2-[{2-[(2,6-diazetidin-1-ylpyrimidin-4-yl)amino]ethyl}(methyl)amino]ethyl}thiourea] showed a melting point of 146 to 148 °C, an IC50 [2] of at most 5 µM and an IC50 [3] of at most 5 µM.
CN(CCNC(=S)Nc1ccc(N(C)C)cc1)CCNc1cc(N2CCCC2)nc(N2CCCC2)n1 [Example 76, N-[4-(dimethylamino)phenyl]-N′-{2-[{2-[(2,6-dipyrrolidin-1-ylpyrimidin-4-yl)amino]ethyl}(methyl)amino]ethyl}thiourea] showed a melting point of 127 to 129 °C, an IC50 [2] of at most 5 µM and an IC50 [3] of at most 5 µM.
With CN(CCNc1cc(N2CCCC2)nc(N2CCCC2)n1)CCNS(=O)(=O)c1cccc(C(F)(F)F)c1 [Example 88, N-{2-[{2-[(2,6-dipyrrolidin-1-ylpyrimidin-4-yl)amino]ethyl}(methyl)amino]ethyl}-3-(trifluoromethyl)benzenesulfonamide] the IC50 [1] was at most 5 µM, the melting point was 203 to 205 °C and the IC50 [2] was at most 5 µM. For the same molecule, the IC50 [3] was at most 5 µM.
With CN(CCNc1cc(N2CCCC2)nc(N2CCCC2)n1)CCNS(=O)(=O)c1ccc(C(F)(F)F)cc1 [Example 89, N-{2-[{2-[(2,6-dipyrrolidin-1-ylpyrimidin-4-yl)amino]ethyl}(methyl)amino]ethyl}-4-(trifluoromethyl)benzenesulfonamide] the IC50 [1] was at most 5 µM, the melting point was 140 to 142 °C and the IC50 [2] was at most 5 µM. It also gave an IC50 [3] of at most 5 µM.
